# Assay results from US6645914B1, “Surfactant-ammonium sulfate adjuvant composition for enhancing efficacy of herbicides” (NDSU-Research Foundation, priority 2002, dated 2003).
# Structures can show the parent of a compound that is named as a salt.
# Experiments:
# Assay type in all cases: in vivo
# [1] = system: Kochia (Kochia scoparia L.); assay: Greenhouse kochia fresh weight reduction from 2,4-D, dicamba, bentazon as influenced by adjuvants; conditions: no adjuvant
# Procedure: Kochia (Kochia scoparia L.) was grown in plastic cones containing a commercial peat-based greenhouse mixture with 5 plants per cone. All growing conditions and herbicide application procedures were similar as explained in Example 2. Herbicides were applied to kochia at the 4 to 6-leaf stage. Herbicide formulation and rates of herbicides and adjuvants are specified in Table 7. Plants were evaluated for herbicide injury and fresh weight reduction 14 days after herbicide application. Data presented are the means of two experiments with four replicates per experiment.
# The adjuvants, Activator 90. RTM and Composition 1, were added into soft and hard water carriers (volume per volume concentrations shown in TABLE 7) with 2,4-D at 220 g ae/ha, dicamba at 75 g ae/ha, or bentazon at 200 g ai/ha to prepare the final aqueous spray mixture applied at 80 L/ha on 4 to 6-leaf kochia. TABLE 7 includes the results of assessment made 2 weeks after treatment.
# [2] = system: Wheat (Triticum aestivum L.); assay: Greenhouse wheat fresh weight reduction from glyphosate as influenced by adjuvants; conditions: adjuvant 1%
# Procedure: (§1) Wheat (Triticum aestivum L.), velvetleaf (Abutilion theophrasti Medicus), Roundup Ready.RTM soybean (Glycine max (L.) Merr.), and Roundup Ready.RTM corn (Zea mays L.) were grown in plastic cones containing a commercial peat-based greenhouse mixture. Plants were thinned 1 wk after emergence to seven wheat, three velvetlaf, or one corn or soybean per cone and were watered and fertilized as needed for healthy growth. Natural daylight was supplemented for 16 h photoperiod with metal halide lamps with the light intensity of 450 μE/m^2/s. The greenhouse was maintained at 20° C. at night and 25 ±5° C. during the day. Glyphosate with adjuvants was applied to three-leaf wheat and corn, first-pair leaf velvetleaf, and to first-trifoliolate-leaf soybean using a cabinet laboratory sprayer that delivered 80 L/ha through a 8001 flat fan nozzle at 280 kPa generated by compressed air. Distilled water, Fargo tap water (soft), and two well waters from the Devils Lake, ND, area (hard and high sodium content, respectively) were used as spray carriers. Ion concentrations in these waters are described in TABLE 1. Formulation type and rates of glyphosate and adjuvants are specified in each table. In all greenhouse studies, plants were evaluated for herbicide injury and adjuvant efficacy 14 days after herbicide application. Data presented are the means of two experiments with four replicates per experiment.
# The adjuvants, ammonium sulfate, Activator 90. RTM, and mixtures thereof, Surfate.RTM, and Composition 1 were added into water [weight (for solids) or volume (for liquids) per volume concentrations shown in TABLE 2] with glyphosate at 100 g ae/ha to prepare the final aqueous spray mixture applied at 80 L/ha on 2 to 3 leaf wheat. Calcium chloride was added to distilled water to get 0, 125, 250, and 500 mg/L calcium cations. TABLE 2 includes the results of assessment made 2 weeks after treatment.
# The adjuvants, Activator 90. RTM, MON 0818, Atplus GTM7, Atplus GTM10 and their mixtures with ammonium sulfate, Surfate.RTM, and Composition 1 were added into three water carriers [weight (for solids) or volume (for liquids) per volume concentrations shown in TABLE 3] with glyphosate (100 g ae/ha) to prepare the final aqueous spray mixture applied at 80 L/ha on 2 to 3 leaf wheat. TABLE 3 includes the results of assessment made 2 weeks after treatment.
# The adjuvants, ammonium sulfate, Activator 90.RTM, and mixtures thereof, Surfate.RTM, and Composition 1 were added into two water carriers (weight [for solids] or volume [for liquids] per volume concentrations shown in TABLE 4) with three glyphosate formulations, all at 125 g ae/ha, to.prepare the final aqueous spray mixture applied at 80 L/ha on 2 to 3 leaf wheat. TABLE 4 includes the results of assessment made 2 weeks after treatment.
# Various iminodipropionate, betaine, imidazoline, and amine oxide amphoteric surfactants applied with ammonium sulfate and adjuvant formulations containing surfactant and ammonium sulfate, including Composition 1 of present invention, were added into hard water carrier [weight (for solids) or volume (for liquids) per volume concentrations shown in TABLE 5] with glyphosate at 125 g ae/ha to prepare the final aqueous spray mixture applied at 80 L/ha on 2 to 3 leaf wheat. TABLE 5 includes the results of assessment made 2 weeks after treatment.
# [3] = system: velvetleaf (Abutilion theophrasti Medicus); assay: Greenhouse velvetleaf fresh weight reduction from glyphosate as influenced by adjuvants; conditions: glyphosate (Roundup Ultra Max.RTM) 150 g ae/ha; hard water (Devils Lake, ND, No. 2 - well water); adjuvant 1%
# Procedure: as §1, with “experiment. […]” for “experiment.”
smiles,measurement,setting,value
"O=C(O)COc1ccc(Cl)cc1Cl [2,4-D-dimethylamine salt, (2,4-dichlorophenoxy)acetic acid]",percent fresh weigh reduction,"[1]; 2,4-D-dimethylamine salt 220 g ae/ha, water Devils Lake No. 1 (well)",10%
same,percent fresh weigh reduction,"[1]; 2,4-D-dimethylamine salt 220 g ae/ha, water Fargo, ND (tap)",20%
N.N.O=S(=O)(O)O [Ammonium sulfate],% fresh weight reduction,"[2]; Roundup Custom.RTM 125 g ae/ha, water Devils Lake No. 1 (well)",23%
same,% fresh weight reduction,"[2]; Roundup Custom.RTM 125 g ae/ha, water Fargo (tap)",68%
same,% fresh weight reduction,"[2]; Roundup Ultra Max.RTM 125 g ae/ha, water Devils Lake No. 1 (well)",43%
same,% fresh weight reduction,"[2]; Roundup Ultra Max.RTM 125 g ae/ha, water Fargo (tap)",54%
same,% fresh weight reduction,"[2]; Touchdown.RTM 125 g ae/ha, water Devils Lake No. 1 (well)",24%
same,% fresh weight reduction,"[2]; Touchdown.RTM 125 g ae/ha, water Fargo (tap)",71%
same,% fresh weight reduction,"[2]; glyphosate 100 g ae/ha (Roundup Ultra Max.RTM), Ca2+ 0 mg/L, 2 weeks after treatment",65%
same,% fresh weight reduction,"[2]; glyphosate 100 g ae/ha (Roundup Ultra Max.RTM), Ca2+ 125 mg/L, 2 weeks after treatment",72%
same,% fresh weight reduction,"[2]; glyphosate 100 g ae/ha (Roundup Ultra Max.RTM), Ca2+ 250 mg/L, 2 weeks after treatment",73%
same,% fresh weight reduction,"[2]; glyphosate 100 g ae/ha (Roundup Ultra Max.RTM), Ca2+ 500 mg/L, 2 weeks after treatment",64%
same,Fresh weight reduction %,[3],54%
"CC(C)N1C(=O)c2ccccc2NS1(=O)=O [bentazon-sodium salt, 3-(1-methylethyl)-(1H)-2,1,3-benzothiadiazin-4(3H)-one 2,2-dioxide]",percent fresh weigh reduction,"[1]; bentazon-sodium salt 200 g ai/ha, water Devils Lake No. 1 (well)",5%
same,percent fresh weigh reduction,"[1]; bentazon-sodium salt 200 g ai/ha, water Fargo, ND (tap)",20%
"COc1c(Cl)ccc(Cl)c1C(=O)O [dicamba-sodium salt, 3,6-dichloro-2-methoxybenzoic acid]",percent fresh weigh reduction,"[1]; dicamba-sodium salt 75 g ae/ha, water Devils Lake No. 1 (well)",9%
same,percent fresh weigh reduction,"[1]; dicamba-sodium salt 75 g ae/ha, water Fargo, ND (tap)",12%
